The source of these data is ChEMBL document CHEMBL1201862, “PubChem BioAssay data set” (2004).

Some test systems named below: A549; ACHN; BT-549; CCRF-CEM; HCT-116; HCT-15; HL-60; HOP-92; KM-20L2; KM12; LOX IMVI; MDA-N; NCI-H460; OVCAR-5; SF-295; SF-539; SK-MEL-2; SW-620; U-251; UO-31.
What all share (assay): growth of human tumour cells (NCI), 48 h

Counter-ions that a name gives are not always drawn.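 Five concentrations, 48 hours, 96-well plates. GI50: concentration for 50% inhibition of growth.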 Activity calls are given as the source filed them. Rule as the data show it: active = GI50 up to about 1.1 µM and inactive = higher.

Take `NCCSSCCN` [CYSTAMINE HYDROCHLORIDE]: the GI50 in the experiment on A549 was > 100 µM (inactive); in the experiment with ACHN, > 100 µM (inactive); in the experiment on BT-549 it was > 100 µM (inactive); with CCRF-CEM, 56.1 µM (inactive); in the experiment on HCT-116, > 100 µM (inactive); in the experiment on HCT-15, more than 100 µM. The GI50 with HL-60, with HOP-92, in the experiment on KM-20L2, with KM12, in the experiment with LOX IMVI and with MDA-N was > 100 µM (inactive) throughout. The GI50 with NCI-H460, with OVCAR-5, in the experiment with SF-295, in the experiment with SF-539, with SK-MEL-2 and in the experiment on SW-620 was > 100 µM (inactive) throughout. Also, the GI50 in the experiment with U-251 and in the experiment with UO-31 was > 100 µM (inactive) throughout.
